Results from patent US12065471B2, “B*44 restricted peptides for use in immunotherapy against cancers and related methods” (Immatics Biotechnologies GmbH, priority 2018, dated 2024).

Key:
CD8+ T cells = assay: In vitro immunogenicity: T-cell priming with aAPCs loaded with peptide/MHC and anti-CD28, pMHC multimer readout; type: cell-based, human; details: Table 10b, pMHC multimer readout after T-cell priming
Method: After three cycles of stimulation, the detection of peptide-reactive cells was performed by 2D multimer staining with B*44/SEQ ID NO: 469 (FIG. 3A), B*44/SEQ ID NO: 512 (FIG. 3B), B*44/SEQ ID NO: 9 (FIG. 3C), B*44/SEQ ID NO: 11 (D), B*44/SEQ ID NO: 17 (E), B*44/SEQ ID NO: 35 (F) or B*44/SEQ ID NO: 41 (FIG. 3G). Right panels (FIGS. 3A through 3G) show control staining of cells stimulated with irrelevant B*44/peptide complexes. Viable singlet cells were gated for CD8+ lymphocytes. Boolean gates helped excluding false-positive events detected with multimers specific for different peptides.
In order to obtain information regarding the immunogenicity of the TUMAPs of the present invention, the inventors performed investigations using an in vitro T-cell priming assay based on repeated stimulations of CD8+ T cells with artificial antigen presenting cells (aAPCs) loaded with peptide/MHC complexes and anti-CD28 antibody.
In order to perform in vitro stimulations by artificial antigen presenting cells loaded with peptide-MHC complex (pMHC) and anti-CD28 antibody, the inventors first isolated CD8+ T cells from fresh HLA-A*02 leukapheresis products via positive selection using CD8 microbeads (Miltenyi Biotec, Bergisch-Gladbach, Germany) of healthy donors obtained from the University clinics Mannheim, Germany, after informed consent.
PBMCs and isolated CD8+ lymphocytes were incubated in T-cell medium (TCM) until use consisting of RPMI-Glutamax (Invitrogen, Karlsruhe, Germany) supplemented with 10% heat inactivated human AB serum (PAN-Biotech, Aidenbach, Germany), 100 U/ml Penicillin/100 μg/ml Streptomycin (Cambrex, Cologne, Germany), 1 mM sodium pyruvate (CC Pro, Oberdorda, Germany), 20 μg/ml Gentamycin (Cambrex). 2.5 ng/ml IL-7 (PromoCell, Heidelberg, Germany) and 10 U/ml IL-2 (Novartis Pharma, Nümberg, Germany) were also added to the TCM at this step.
Generation of pMHC/anti-CD28 coated beads, T-cell stimulations and readout was performed in a highly defined in vitro system using four different pMHC molecules per stimulation condition and 8 different pMHC molecules per readout condition.
The purified co-stimulatory mouse IgG2a anti human CD28 Ab 9.3 (Jung et al., 1987) was chemically biotinylated using Sulfo-N-hydroxysuccinimidobiotin as recommended by the manufacturer (Perbio, Bonn, Germany). Beads used were 5.6 μm diameter streptavidin coated polystyrene particles (Bangs Laboratories, Illinois, USA).
800.000 beads/200 μl were coated in 96-well plates in the presence of 4×12.5 ng different biotin-pMHC, washed and 600 ng biotin anti-CD28 were added subsequently in a volume of 200 μl. Stimulations were initiated in 96-well plates by co-incubating 1×10^6 CD8+ T cells with 2×10^5 washed coated beads in 200 μl TCM supplemented with 5 ng/ml IL-12 (PromoCell) for 3 days at 37° C. Half of the medium was then exchanged by fresh TCM supplemented with 80 U/ml IL-2 and incubating was continued for 4 days at 37° C. This stimulation cycle was performed for a total of three times. For the pMHC multimer readout using 8 different pMHC molecules per condition, a two-dimensional combinatorial coding approach was used as previously described (Andersen et al., 2012) with minor modifications encompassing coupling to 5 different fluorochromes. Finally, multimeric analyses were performed by staining the cells with Live/dead near IR dye (Invitrogen, Karlsruhe, Germany), CD8-FITC antibody clone SK1 (BD, Heidelberg, Germany) and fluorescent pMHC multimers. For analysis, a BD LSRII SORP cytometer equipped with appropriate lasers and filters was used. Peptide specific cells were calculated as percentage of total CD8+ cells. Evaluation of multimeric analysis was done using the FlowJo software (Tree Star, Oregon, USA). In vitro priming of specific multimer+CD8+ lymphocytes was detected by comparing to negative control stimulations.

HLA-B*44:05 = HLA-B*44:05 (Homo sapiens, UniProt P01889, A223V/A65T/A93T/A95T/D201E/D98Y/E176V/E187L/E204Q/E69K/G107R/H137Y/K202T/L105A/L119I/N104T/N87E/Q56L/Q94N/R106L/R155S/R180D/S101N/S121R/S35A/S48T/T118I/V36M/W191S/Y91S); assay: MHC binding assay (UV-ligand exchange, β2m ELISA, peptide exchange yield); details: binding to HLA-B*44:05
Summary of the method: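 Binding is read as exchange yield, i.e. stabilized complex remaining after UV cleavage of a photolabile ligand in the presence of the candidate peptide. Streptavidin-captured monomers (100-fold dilution) are probed with HRP-anti-β2m, 1h at 37° C, TMB, A450. Standard curve: HLA-A*02:01/MLA-001 monomers at 15-500 ng/ml.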

Row | Substance | Wells positive [%] (CD8+ T cells) | Peptide exchange (MHC class I binding score, peptide exchange yield) (HLA-B*44:05)
1 | 51 (VEMTGKHQL; listed as Homo sapiens) [compound 51] | ++ (20%-49% = ++) | ++ (>20% = ++)
2 | 49 (SEYVHSSF; listed as Homo sapiens) [compound 49] | + (<20% = +) | ++ (>20% = ++)
3 | 37 (IEQGRVVLW; listed as Homo sapiens) [compound 37] | ++++ (>=70% = ++++) | ++++ (>75% = ++++)
4 | 69 (DENIQKFIW; listed as Homo sapiens) [compound 69] | ++ (20%-49% = ++) | +++ (>50 = +++)
5 | 68 (NEIDIHSIYF; listed as Homo sapiens) [compound 68] | ++ (20%-49% = ++) | ++++ (>75% = ++++)
6 | 40 (REVDPDDSYVF; listed as Homo sapiens) [compound 40] | + (<20% = +) | +++ (>50 = +++)
7 | 79 (TEAQRLDCW; listed as Homo sapiens) [compound 79] | + (<20% = +) | +++ (>50 = +++)
8 | 13 (VEAQDRETW; listed as Homo sapiens) [compound 13] | ++ (20%-49% = ++) | ++ (>20% = ++)
9 | 33 (IEYENQKRL; listed as Homo sapiens) [compound 33] | ++ (20%-49% = ++) | ++ (>20% = ++)
10 | 25 (SEKEPGQQY; listed as Homo sapiens) [compound 25] | ++ (20%-49% = ++) | ++ (>20% = ++)
11 | 36 (LEQASRIWSW; listed as Homo sapiens) [compound 36] | ++++ (>=70% = ++++) | ++++ (>75% = ++++)
12 | 28 (QEFPAHSL; listed as Homo sapiens) [compound 28] | + (<20% = +) | +++ (>50 = +++)
13 | 54 (QEISAHRTEF; listed as Homo sapiens) [compound 54] | + (<20% = +) | +++ (>50 = +++)
14 | 72 (AEVGDIIKVHF; listed as Homo sapiens) [compound 72] | ++ (20%-49% = ++) | +++ (>50 = +++)
15 | 53 (KEDNPSGHTY; listed as Homo sapiens) [compound 53] | ++ (20%-49% = ++) | +++ (>50 = +++)
16 | 73 (GEGTLRLSW; listed as Homo sapiens) [compound 73] | ++ (20%-49% = ++) | ++++ (>75% = ++++)
17 | 62 (AEYSVHKITSTF; listed as Homo sapiens) [compound 62] | + (<20% = +) | ++++ (>75% = ++++)
18 | 422 (EEAQWVRKYF; listed as Homo sapiens) [compound 422] | ++++ (>=70% = ++++) | +++ (>50 = +++)
19 | 70 (AEAEEAMKRL; listed as Homo sapiens) [compound 70] | ++ (20%-49% = ++) | +++ (>50 = +++)
20 | 20 (LEALLSDLF; listed as Homo sapiens) [compound 20] | ++ (20%-49% = ++) | +++ (>50 = +++)
21 | 80 (TEQSLYYRQW; listed as Homo sapiens) [compound 80] | ++++ (>=70% = ++++) | +++ (>50 = +++)
22 | 19 (MEHSDENIQFW; listed as Homo sapiens) [compound 19] | ++ (20%-49% = ++) | ++ (>20% = ++)
23 | 9 (MEVDPIGHLYIF; listed as Homo sapiens) [compound 9] | +++ (50%-69% = +++) | ++++ (>75% = ++++)
24 | 61 (AEYSVHKI; listed as Homo sapiens) [compound 61] | + (<20% = +) | +++ (>50 = +++)
25 | 421 (TEDYSKQAL; listed as Homo sapiens) [compound 421] | + (<20% = +) | +++ (>50 = +++)
